Test results as given in PMC5078989, “Targeted inhibition of the COP9 signalosome for treatment of cancer” (Nature Communications, 2016).

Key:
HCT116 cells = experiment: Cell viability assay (CellTiter-Glo), HCT116; type: cell-based, human; conditions: HCT116, 72 h; cytotoxic
Method: (§1) Cells were maintained in a humidified incubator at 37 °C and 5% CO2. […] All cells were negatively tested for mycoplasma contamination either by the vendor or in house. […] If not stated otherwise, cells were harvested after incubation for 16 h and subjected to SDS-PAGE and western blotting. The RNA interference experiment was performed with CSN5 stealth siRNA (#HSS116986) and stealth negative control siRNA (#12935-400) (Invitrogen), which were transfected at 10 nM into HCT116 cells using […] (Qiagen) according to the manufacturer's protocols. Seventy-two hours after transfection, cells were harvested and subjected to SDS-PAGE and western blotting (see Supplementary Fig. 7 for all western blottings performed). A standardized CellTiter-Glo Assay (Promega #G7570) based on the quantification of ATP was applied according to the manufacturer's protocol to measure the amount of viable cells in culture. In brief, cells were seeded into 384-well plates at optimal density for each cell line. After 4 h, compounds were added at different concentrations in growth medium and incubated for another 72 h in a humidifying chamber at 37 °C and 5% CO2. Eventually, equal amounts of CellTiter-Glo reagent were added directly to the cells, incubated for 15 min and luminescence was recorded using PHERAstar plate reader (BMG LABTECH GmbH).

human MMP1 = biological target: T1, human MMP1 (Homo sapiens, UniProt P03956); experiment: Selectivity assay MMP1; type: biochemical
T1 construct: Human MMP1 (Uniprot P03956), amino acids 1–469; made in house; host or cells: stably transfected C127 cells
T1 sequence (P03956 20-469): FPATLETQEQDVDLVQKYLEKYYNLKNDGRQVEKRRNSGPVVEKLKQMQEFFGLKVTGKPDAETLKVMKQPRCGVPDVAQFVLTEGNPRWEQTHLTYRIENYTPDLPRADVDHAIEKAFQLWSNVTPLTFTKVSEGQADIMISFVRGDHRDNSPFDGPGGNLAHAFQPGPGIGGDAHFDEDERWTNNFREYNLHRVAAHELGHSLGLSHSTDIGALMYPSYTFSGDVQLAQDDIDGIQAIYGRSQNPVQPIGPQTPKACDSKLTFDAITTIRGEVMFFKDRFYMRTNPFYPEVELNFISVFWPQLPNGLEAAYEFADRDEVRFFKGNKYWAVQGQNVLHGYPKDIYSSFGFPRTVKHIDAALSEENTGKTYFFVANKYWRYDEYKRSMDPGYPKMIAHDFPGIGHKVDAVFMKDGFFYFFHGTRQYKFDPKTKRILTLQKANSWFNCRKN
Method: (§2) All biochemical assays were performed at room temperature in 384-well plates in a total volume of 25.25 μl per well. Test compounds were dissolved in 90% (v/v) DMSO/water. For the assays, 250 nl of compound solution was added per well, followed by addition of 12.5 μl protease solution. After 70 min of pre-incubation at room temperature, the reactions were started by addition of 12.5 μl substrate solution and followed either by measuring fluorescence intensity (rhodamine 110-based substrates) or by fluorescence lifetime (PT14-based substrates). The effect of compound on enzymatic activity was obtained from the linear part of the progress curves and determined after 1 h (t=60 min). The final compound concentrations ranged from 100 μM to 1 nM.
Matrix metalloproteinases. […]

RPN11 (26S proteasome) = biological target: T2, RPN11 (26S proteasome) (Homo sapiens, UniProt O00487); experiment: Selectivity assay RPN11 (26S proteasome); type: biochemical; conditions: JAMM domain protease
T2 construct: purchased LifeSensors PS026
Method: as §2
RPN11 (26S proteasome). Enzyme purchased from LifeSensors (catalogue number PS026); substrate: K48-linked tetra-ubiquitin chain coupled to a rhodamine 110 fluorophore purchased from LifeSensors (catalogue number NO13–158.01); enzyme concentration: 0.75 nM; substrate concentration: 100 nM; assay buffer: 20 mM Hepes at pH 7.4, 150 mM NaCl, 0.02% Tween-20, 0.5 mM TCEP, 0.05 mM MgCl2, 1 mM ATP and 2 μM ubiquitin aldehyde.

NCI-H2030 cells = experiment: Cell viability assay (CellTiter-Glo), NCI-H2030; type: cell-based, human; conditions: NCI-H2030, 72 h; cytostatic
Method: as §1

CC(C)n1nc(C(F)F)cc1C(=O)Nc1ccc([C@H]2[C@@H](O)CCCc3cncn32)c(-c2ccccc2)c1 [CSN5i-3, 3-(Difluoromethyl)-N-(6-((5S,6S)-6-hydroxy-6,7,8,9-tetrahydro-5H-imidazo[1,5-a]azepin-5-yl)-[1,1′-biphenyl]-3-yl)-1-isopropyl-1H-pyrazole-5-carboxamide]
AMAX (HCT116 cells): ≤ −95%
IC50 (human MMP1): > 100 µM
IC50 (RPN11 (26S proteasome)): 53 ± 26 µM
AMAX (NCI-H2030 cells): about −50%
